In patent US7598382B2, “Aryl substituted imidazoquinolines” (Coley Pharmaceutical Group, Inc., priority 2002, dated 2009) one finds melting point data, which are given here for 26 compounds.

As usually defined, the melting point is the temperature, or range, at which the solid turns liquid. For `CCOc1ccccc1-c1ccc2c(c1)nc(N)c1nc(COC)n(CC(C)(C)O)c12` [Example 394, 1-[4-Amino-7-(2-ethoxyphenyl)-2-methoxymethyl-1H-imidazo[4,5-c]quinolin-1-yl]-2-methylpropan-2-ol], the melting point is 173 to 175 °C.
Consider `COCc1nc2c(N)nc3cc(-c4cncnc4)ccc3c2n1CC(C)(C)O` [Example 395, 1-[4-Amino-2-methoxymethyl-7-(pyrimidin-5-yl)-1H-imidazo[4,5-c]quinolin-1-yl]-2-methylpropan-2-ol], for which the melting point was in the range of 220 to 220.5 °C.
The value for `COCc1nc2c(N)nc3cc(-c4cccnc4)ccc3c2n1CC(C)(C)O` [Example 396, 1-[4-Amino-2-methoxymethyl-7-(pyridin-3-yl)-1H-imidazo[4,5-c]quinolin-1-yl]-2-methylpropan-2-ol] was 225 to 225.5 °C; that for `COCc1nc2c(N)nc3cc(-c4cnc(OC)nc4)ccc3c2n1CC(C)(C)O` [Example 397, 1-[4-Amino-2-methoxymethyl-7-(2-methoxypyrimidin-5-yl)-1H-imidazo[4,5-c]quinolin-1-yl]-2-methylpropan-2-ol] was 241 to 242 °C; that for `COCc1nc2c(N)nc3cc(-c4ccc(OC)nc4)ccc3c2n1CC(C)(C)O` [Example 398, 1-[4-Amino-2-methoxymethyl-7-(6-methoxypyridin-3-yl)-1H-imidazo[4,5-c]quinolin-1-yl]-2-methylpropan-2-ol] was 190 to 190.5 °C.
`COCc1nc2c(N)nc3cc(-c4cnccc4OC)ccc3c2n1CC(C)(C)O` [Example 399, 1-[4-Amino-2-methoxymethyl-7-(4-methoxypyridin-3-yl)-1H-imidazo[4,5-c]quinolin-1-yl]-2-methylpropan-2-ol] showed a melting point of 220.5 to 222 °C.
With `COCc1nc2c(N)nc3cc(-c4cncc(OC)c4)ccc3c2n1CC(C)(C)O` [Example 400, 1-[4-Amino-2-methoxymethyl-7-(5-methoxypyridin-3-yl)-1H-imidazo[4,5-c]quinolin-1-yl]-2-methylpropan-2-ol] the figure was 234 to 236 °C; with `CCc1nc2c(N)nc3cc(-c4cccnc4)ccc3c2n1CC1CCN(C(=O)OC(C)(C)C)CC1` [Example 404, tert-Butyl 4-{[4-amino-2-ethyl-7-(pyridin-3-yl)-1H-imidazo[4,5-c]quinolin-1-yl]methyl}piperidine-1-carboxylate], 229 to 231 °C.
The value for `CCCc1nc2c(N)nc3cc(-c4cccnc4)ccc3c2n1CC1CCN(C(=O)OC(C)(C)C)CC1` [Example 409, tert-Butyl 4-{[4-amino-2-propyl-7-(pyridin-3-yl)-1H-imidazo[4,5-c]quinolin-1-yl]methyl}piperidine-1-carboxylate] was 209 to 211 °C; that for `CCCc1nc2c(N)nc3cc(-c4cccnc4)ccc3c2n1CC1CCN(C(=O)C(C)C)CC1` [Example 412, 1-{4-[4-Amino-2-propyl-7-(pyridin-3-yl)-1H-imidazo[4,5-c]quinolin-1-ylmethyl]piperidin-1-yl}-2-methylpropan-1-one] was 248 to 249 °C.
With `CCOCc1nc2c(N)nc3cc(-c4cccnc4)ccc3c2n1CCN1CCNCC1` [Example 414, 2-Ethoxymethyl-1-(2-piperazin-1-ylethyl)-7-(pyridin-3-yl)-1H-imidazo[4,5-c]quinolin-4-amine] the figure was 208 to 211 °C; with `CCCc1nc2c(N)nc3cc(-c4cccnc4)ccc3c2n1CC(C)(C)O` [Example 418, 1-[4-Amino-2-propyl-7-(pyridin-3-yl)-1H-imidazo[4,5-c]quinolin-1-yl]-2-methylpropan-2-ol], 238.5 to 241 °C; with `CCCc1nc2c(N)nc3cc(-c4cncc(CO)c4)ccc3c2n1CC(C)(C)O` [Example 420, 1-[4-Amino-7-(5-hydroxymethylpyridin-3-yl)-2-propyl-1H-imidazo[4,5-c]quinolin-1-yl]-2-methylpropan-2-ol], 225 to 226 °C.
Compound `CC(C)Cn1cnc2c(N)nc3ccc(CCc4ccncc4)cc3c21` [Example 425, 1-(2-Methylpropyl)-8-(2-pyridin-4-ylethyl)-1H-imidazo[4,5-c]quinolin-4-amine] yielded a melting point of 221 to 224 °C.
The value for `CC(C)Cn1cnc2c(N)nc3ccc(CCCCc4ccccc4)cc3c21` [Example 426, 1-(2-Methylpropyl)-8-(4-phenylbutyl)-1H-imidazo[4,5-c]quinolin-4-amine] was 176 to 177 °C; that for `CC(C)Cn1cnc2c(N)nc3cc(C=Cc4ccccc4)ccc3c21` [Example 427, 1-(2-Methylpropyl)-7-styryl-1H-imidazo[4,5-c]quinolin-4-amine] was 257 to 258 °C; that for `CC(C)Cn1cnc2c(N)nc3cc(-c4cccnc4)ccc3c21` [Example 428, 1-(2-Methylpropyl)-7-(pyridin-3-yl)-1H-imidazo[4,5-c]quinolin-4-amine] was 125 °C.
As to `CC(C)Cn1cnc2c(N)nc3cc(-c4cncc(CO)c4)ccc3c21` [Example 429, 1-(2-Methylpropyl)-7-(5-hydroxymethylpyridin-3-yl)-1H-imidazo[4,5-c]quinolin-4-amine], the melting point was 210 to 211 °C.
With `CC(C)Cn1cnc2c(N)nc3cc(CCc4ccccc4)ccc3c21` [Example 430, 1-(2-Methylpropyl)-7-phenethyl-1H-imidazo[4,5-c]quinolin-4-amine] the figure was 172 to 173 °C; with `CC(C)(O)Cn1cnc2c(N)nc3cc(Cc4ccccc4)ccc3c21` [Example 431, 1-(4-Amino-7-benzyl-1H-imidazo[4,5-c]quinolin-1-yl)-2-methylpropan-2-ol], 228 to 229 °C.
With `CC(C)(O)Cn1cnc2c(N)nc3ccc(Cc4ccccc4)cc3c21` [Example 434, 1-(4-Amino-8-benzyl-1H-imidazo[4,5-c]quinolin-1-yl)-2-methylpropan-2-ol] the figure was 256 to 257 °C.
The value for `CCCc1nc2c(N)nc3ccc(Cc4ccccc4)cc3c2n1CC(C)(C)O` [Example 435, 1-(4-Amino-8-benzyl-2-propyl-1H-imidazo[4,5-c]quinolin-1-yl)-2-methylpropan-2-ol] was 191 to 192 °C.
On to `CCOCc1nc2c(N)nc3ccc(Cc4ccccc4)cc3c2n1CC(C)(C)O` [Example 436, 1-(4-Amino-8-benzyl-2-ethoxymethyl-1H-imidazo[4,5-c]quinolin-1-yl)-2-methylpropan-2-ol], for which the melting point fell in the range of 209 to 210 °C.
With `CCOCc1nc2c(N)nc3cc(-c4cccnc4)ccc3c2n1CC1CCCCC1` [Example 438, 1-Cyclohexylmethyl-2-ethoxymethyl-7-(pyridin-3-yl)-1H-imidazo[4,5-c]quinolin-4-amine] the figure was 146 to 148 °C; with `CCOCc1nc2c(N)nc3cc(-c4cncc(CO)c4)ccc3c2n1CC1CCCCC1` [Example 439, 1-Cyclohexylmethyl-2-ethoxymethyl-7-(5-hydroxymethylpyridin-3-yl)-1H-imidazo[4,5-c]quinolin-4-amine], 240 to 241 °C; with `CCCc1nc2c(N)nc3cc(/C=C/c4cccc(S(N)(=O)=O)c4)ccc3c2n1CC(C)C` [Example 440, (E)-3-{2-[4-Amino-1-(2-methylpropyl)-2-propyl-1H-imidazo[4,5-c]quinolin-7-yl]vinyl}benzenesulfonamide], over 250 °C.
